Data published in patent US9145405B2, “Oxadiazole compound and preparation method thereof, pharmaceutical composition and use thereof” (SHANGHAI JIAO TONG UNIVERSITY, priority 2011, dated 2015).
≈ marks a conversion by molar mass, not a printed value. Where two headings read alike, the source gives them in different places.

Tests used:
Vero cells = assay: Toxicity (half toxic concentration) in the anti-Cox_B3 test on Vero cells; assay type: cell-based
Cox_B3 virus = assay: Anti-Cox_B3 test: inhibition of cytopathic effect (CPE) in infected Vero cells, Reed-Muench; assay type: cell-based; conditions: Cox_B3 virus in Vero cells, CPE, Reed-Muench method; for IC50: read-out: IC50 (half-inhibitory concentration for viruses)
Text: The present examples verifies experimental results of anti-Cox_B3 of the compounds 1-137of the present invention, Pleconaril, 3-[3,5-dimethyl-4-[5-(3-methy-1,2-oxazolyl)propoxy]phenyl]-5-(trifluonomethyl) -1,2,4-oxadiazole is used as positive control.

IC50 (Cox_B3 virus) [µg/mL]	IC50 (half-inhibitory concentration for viruses) (Cox_B3 virus) [µg/mL]	SMILES	TC50 (half of the toxic concentration) (Vero cells; Vero cells, Cox_B3) [µg/mL]	TC50 (half of the toxic concentration) (Vero cells) [µg/mL]
0.022 (≈ 0.0574 µM)		Cc1cc(OCCOc2c(C)cc(-c3noc(C(F)(F)F)n3)cc2C)no1 [Compound 1, 3-[3,5-dimethyl-4-[2-(5-methylisoxazole-3-oxy)ethoxyl]phenyl]-5-(trifluoromethyl)-1,2,4-oxadiazole]	50.67	
0.021 (≈ 0.0528 µM)		Cc1cc(OCCCOc2c(C)cc(-c3noc(C(F)(F)F)n3)cc2C)on1 [Compound 8, 3-[3,5-dimethyl-4-[3-(3-methylisoxazole-5-oxy)propoxy]phenyl]-5-(trifluoromethyl)-1,2,4-oxadiazole]	52.38	
0.042 (≈ 0.105 µM)		Cc1cc(OCCOc2c(C)cc(-c3noc(C(F)(F)F)n3)cc2C)ns1 [Compound 10, 3-[3,5-dimethyl-4-[2-(5-methylisothiazole-3-oxy)ethoxyl]phenyl]-5-(trifluoromethyl)-1,2,4-oxadiazole]	46.47	
0.058 (≈ 0.14 µM)		Cc1cc(OCCCOc2c(C)cc(-c3noc(C(F)(F)F)n3)cc2C)ns1 [Compound 11, 3-[3,5-dimethyl-4-[3-(5-methylisothiazole-3-oxy)propoxy]phenyl]-5-(trifluoromethyl)-1,2,4-oxadiazole]	45.87	
0.12 (≈ 0.314 µM)		Cc1c[nH]c(OCCOc2c(C)cc(-c3noc(C(F)(F)F)n3)cc2C)n1 [Compound 12, 3-[3,5-dimethyl-4-[2-(4-methylimidazole-2-oxy)ethoxyl]phenyl]-5-(trifluoromethyl)-1,2,4-oxadiazole]	40.27	
0.15 (≈ 0.376 µM)		Cc1csc(OCCOc2c(C)cc(-c3noc(C(F)(F)F)n3)cc2C)n1 [Compound 13, 3-[3,5-dimethyl-4-[2-(4-methylthiazole-2-oxy)ethoxyl]phenyl]-5-(trifluoromethyl)-1,2,4-oxadiazole]	38.68	
0.12 (≈ 0.314 µM)		Cc1cc(OCCOc2c(C)cc(-c3noc(C(F)(F)F)n3)cc2C)[nH]n1 [Compound 15, 3-[3,5-dimethyl-4-[2-(3-methyl-1H-pyrazole-5-oxy)ethoxyl]phenyl]-5-(trifluoromethyl)-1,2,4-oxadiazole]	42.38	
0.03 (≈ 0.0783 µM)		Cc1nnc(OCCOc2c(C)cc(-c3noc(C(F)(F)F)n3)cc2C)[nH]1 [Compound 24, 3-[2-[2,6-dimethyl-4-[5-(trifluoromethyl)-1,2,4-oxadiazole-3-yl]phenoxyl]ethoxyl]-5-methyl-4H-1,2,4-triazole]	42.23	
0.11 (≈ 0.286 µM)		Cc1nnc(OCCOc2c(C)cc(-c3noc(C(F)(F)F)n3)cc2C)o1 [Compound 28, 3-[3,5-dimethyl-4-[2-[5-methyl-1,3,4-oxadiazole-2-oxy]ethoxyl]phenyl]-5-(trifluoromethyl)-1,2,4-oxadiazole]	32.36	
0.056 (≈ 0.136 µM)		Cc1ccc(OCCOc2c(C)cc(-c3noc(C(F)(F)F)n3)cc2C)c(F)c1 [Compound 39, 3-[3,5-dimethyl-4-[(2-fluoro-4-methylphenoxyl)ethoxyl]phenyl]-5-(trifluoromethyl)-1,2,4-oxadiazole]	44.28	
0.044 (≈ 0.103 µM)		COc1ccc(OCCOc2c(C)cc(-c3noc(C(F)(F)F)n3)cc2C)c(F)c1 [Compound 40, 3-[3,5-dimethyl-4-[(2-fluoro-4-methoxyphenoxyl)ethoxyl]phenyl]-5-(trifluoromethyl)-1,2,4-oxadiazole]	45.39	
0.033 (≈ 0.0748 µM)		Cc1cc(-c2noc(C(F)(F)F)n2)cc(C)c1OCCOc1ccc([N+](=O)[O-])cc1F [Compound 41, 3-[3,5-dimethyl-4-[(2-fluoro-4-nitrophenoxyl)ethoxyl]phenyl]-5-(trifluoromethyl)-1,2,4-oxadiazole]	46.89	
0.033 (≈ 0.0738 µM)		Cc1cc(-c2noc(C(F)(F)F)n2)cc(C)c1OCCOc1c(Cl)cccc1Cl [Compound 42, 3-[3,5-dimethyl-4-[(2,6-dichlorophenoxyl)ethoxyl]phenyl]-5-(trifluoromethyl)-1,2,4-oxadiazole]	36.89	
0.044 (≈ 0.0984 µM)		Cc1cc(-c2noc(C(F)(F)F)n2)cc(C)c1OCCOc1ccc(Cl)cc1Cl [Compound 43, 3-[3,5-dimethyl-4-[(2,4-dichlorophenoxyl)ethoxyl]phenyl]-5-(trifluoromethyl)-1,2,4-oxadiazole]	35.66	

More lines, now with the values behind:

SMILES	IC50 (Cox_B3 virus) [µg/mL]	IC50 (half-inhibitory concentration for viruses) (Cox_B3 virus) [µg/mL]	TC50 (half of the toxic concentration) (Vero cells; Vero cells, Cox_B3) [µg/mL]	TC50 (half of the toxic concentration) (Vero cells) [µg/mL]
Cc1cc(OCCOc2c(C)cc(-c3noc(C)n3)cc2C)no1 [Compound 2, 3-[3,5-dimethyl-4-[2-(5-methylisoxazole-3-oxy)ethoxyl]phenyl]-5-methyl-1,2,4-oxadiazole]	0.091 (≈ 0.276 µM)		58.78	
Cc1cc(-c2noc(C(F)(F)F)n2)cc(C)c1OCCOc1cc(C(F)(F)F)on1 [Compound 3, 3-[3,5-dimethyl-4-[2-(5-trifluoromethylisoxazole-3-oxy)ethoxyl]phenyl]-5-(trifluoromethyl)-1,2,4-oxadiazole]	0.18 (≈ 0.412 µM)		36.68	
COC(=O)c1cc(OCCOc2c(C)cc(-c3noc(C(F)(F)F)n3)cc2C)no1 [Compound 4, 3-[2-[2,6-dimethyl-4-[5-(trifluoromethyl)-1,2,4-oxadiazole-3-yl]phenoxyl]ethoxyl]-isoxazole-5-carboxylate]		0.26		35.58
Cc1cc(-c2noc(C(F)(F)F)n2)cc(C)c1OCCOc1cc(C(F)(F)F)no1 [Compound 5, 3-[3,5-dimethyl-4-[2-(3-trifluoromethylisoxazole-5-oxy)ethoxyl]phenyl]-5-(trifluoromethyl)-1,2,4-oxadiazole]	0.05 (≈ 0.114 µM)		40.12	
COC(=O)c1cc(OCCCOc2c(C)cc(-c3noc(C(F)(F)F)n3)cc2C)no1 [Compound 7, 3-[3-[2,6-dimethyl-4-[5-(trifluoromethyl)-1,2,4-oxadiazole-3-yl]phenoxyl]propoxy]-isoxazole-5-carboxylate]		0.24		36.48
Cc1cc(-c2noc(C(F)(F)F)n2)cc(C)c1OCCOc1cc(C(F)(F)F)nn1C [Compound 16, 3-[3,5-dimethyl-4-[2-[1-methyl-3-(trifluoromethyl)-1H-pyrazole-5-oxy]ethoxyl]phenyl]-5-(trifluoromethyl)-1,2,4-oxadiazole]	0.09 (≈ 0.2 µM)		41.38	
Cc1cc(-c2noc(C(F)(F)F)n2)cc(C)c1OCCOc1cc(C(=O)O)nn1C [Compound 17, 5-[2-[2,6-dimethyl-4-[5-(trifluoromethyl)-1,2,4-oxadiazole-3-yl]phenoxyl]ethoxyl]-1-methyl-1H-pyrazole-3-carboxylic acid]	0.07 (≈ 0.164 µM)		44.39	
Cc1cc(-c2nc(C(F)(F)F)no2)cc(C)c1OCCOc1noc(C(F)(F)F)n1 [Compound 22]		0.08		40.78
Cc1nnc(SCCOc2c(C)cc(-c3noc(C(F)(F)F)n3)cc2C)[nH]1 [Compound 25, 3-[2-[2,6-dimethyl-4-[5-(trifluoromethyl)-1,2,4-oxadiazole-3-yl]phenoxyl]ethylthio]-5-methyl-4H-1,2,4-triazole]	0.09 (≈ 0.225 µM)		40.21	
Cc1cc(-c2noc(C(F)(F)F)n2)cc(C)c1OCCSc1nnc(C(F)(F)F)[nH]1 [Compound 26, 3-[2-[2,6-dimethyl-4-[5-(trifluoromethyl)-1,2,4-oxadiazole-3-yl]phenoxyl]ethylthio]-5-trifluoromethyl-4H-1,2,4-triazole]	0.06 (≈ 0.132 µM)		38.35	
Cc1cc(-c2noc(C(F)(F)F)n2)cc(C)c1OCCSc1nnc(C)n1C [Compound 27, 3-[2-[2,6-dimethyl-4-[5-(trifluoromethyl)-1,2,4-oxadiazole-3-yl]phenoxyl]ethylthio]-4,5-dimethyl-4H-1,2,4-triazole]	0.07 (≈ 0.169 µM)		39.25	
Cc1cc(-c2noc(C(F)(F)F)n2)cc(C)c1OCCOc1nnc(C(F)(F)F)s1 [Compound 30, 3-[3,5-dimethyl-4-[2-[5-trifluoromethyl-1,3,4-thiadiazole-2-oxy]ethoxyl]phenyl]-5-(trifluoromethyl)-1,2,4-oxadiazole]	0.08 (≈ 0.176 µM)		34.39	
Cc1cc(-c2noc(C(F)(F)F)n2)cc(C)c1OCCOc1ncc(C(=O)O)c(O)n1 [Compound 32, 2-[2-[2,6-dimethyl-4-[5-(trifluoromethyl)-1,2,4-oxadiazole-3-yl]phenoxyl]ethoxyl]-4-hydroxyl-pyrimidine-5-carboxylic acid]	0.023 (≈ 0.0522 µM)		40.28	
Cc1cc(-c2noc(C(F)(F)F)n2)cc(C)c1OCCOc1nccc(C(F)(F)F)n1 [Compound 33, 2-[2-[2,6-dimethyl-4-[5-(trifluoromethyl)-1,2,4-oxadiazole-3-yl]phenoxyl]ethoxyl]-4-(trifluoromethyl) pyrimidine]	0.12 (≈ 0.268 µM)		35.28	
Cc1cc(-c2noc(C(F)(F)F)n2)cc(C)c1OCCSc1nccc(C(F)(F)F)n1 [Compound 34, 2-[2-[2,6-dimethyl-4-[5-(trifluoromethyl)-1,2,4-oxadiazole-3-yl]phenoxyl]ethylthio]-4-(trifluoromethyl) pyrimidine]	0.11 (≈ 0.237 µM)		33.28	
Cc1cc(-c2noc(C(F)(F)F)n2)cc(C)c1OCCOC(C)(C)C [Compound 36, 3-[3,5-dimethyl-4-[(2-tert-butoxy)ethoxyl]phenyl]-5-(trifluoromethyl)-1,2,4-oxadiazole]	0.13 (≈ 0.363 µM)		40.12	
